Measured values taken from US20190345191A1, “CYCLIC DINUCLEOTIDE ANALOGS FOR TREATING CONDITIONS ASSOCIATED WITH STING (STIMULATOR OF INTERFERON GENES) ACTIVITY” (Innate Tumor Immunity, Inc., priority 2016, published 2019).

Test system: STING pathway
Assay: STING pathway activation in THP1-Dual cells, NFκB pathway SEAP reporter
Assay type: cell-based
Settings: Homo sapiens, NFκB pathway reporter (secreted embryonic alkaline phosphatase, QUANTI-Blue, 620 nm), 24-hour or 48-hour assay duration not specified
Experimental: STING pathway activation by the compounds described herein was measured using THP1-Dual™ cells. These cells are THP1 monocytes that have been modified to be reporters for the NFκB pathway (by inducing secreted embryonic alkaline phosphatase (SEAP) expression) and the IRF pathway (by inducing secreted luciferase (LUCIA)). Both of these pathways are activated by STING agonists in these cells.
THP1 Dualtm cells (obtained from Invivogen) are maintained in a cell growth medium that includes Roswell Park Memorial Institute medium (RPMI), 10% fetal calf serum (FCS), 100 U/ml Pen/Strep, 2 mM L-glut, 10 mM Hepes, and 1 mM sodium pyruvate. Prior to the assay, the cells were transferred to an assay medium that includes RPMI, 5% FCS, 100 U/ml Pen/Strep, 2 mM L-glut, 10 mM Hepes, and 1 mM sodium pyruvate. Cells were then counted and evaluated for viability by trypan blue exclusion assay.
The compounds of the present invention can be assayed using, for example, the following procedure. Compounds were dissolved in water or DMSO depending, for example, on their solubility in water or DMSO. […]
To carry out the secreted embryonic alkaline phosphatase reporter, 10 μL of cell supernatant was mixed with 90 μL of QUANTI-Blue in a flat-bottom 384 well plate. […] SEAP activity was measured using a spectrophotometer set at 620 nm. […] Luminescence of the wells was then measured.

Row | SMILES | IC50 [µM]
1 | Nc1ncnc2c1ncn2[C@@H]1O[C@@H]2CNC(=S)N[C@H]3[C@@H](O)[C@H](n4cnc5c(N)ncnc54)O[C@@H]3CNC(=S)N[C@H]2[C@H]1O [Compound 30, (2R,3R,3aS,7aR,9R,10R,10aS,14aR)-2,9-bis(6-amino-9H-purin-9-yl)-3,10-dihydroxydodecahydrodifuro[3,2-d:3′,2′-j][,3,7,9]tetraazacyclododecine-5,12(4H,6H)-dithione] | 25.4
2 | Nc1ncnc2c1ncn2[C@@H]1O[C@@H]2CNC(=O)N[C@H]3[C@@H](O)[C@H](n4cnc5c(N)ncnc54)O[C@@H]3CNC(=O)N[C@H]2[C@H]1O [Compound 31, (2R,3R,3aS,7aR,9R,10R,10aS,14aR)-2,9-bis(6-amino-9H-purin-9-yl)-3,10-dihydroxydodecahydrodifuro[3,2-d:3′,2′-j][1,3,7,9]tetraazacyclododecine-5, 12(4H,6H)-dione] | 22.2
